Results on four molecules are retold here after ChEMBL document CHEMBL4402586, “2-Aminophenylpyrimidines as Novel Inhibitors of Aminoacyl-tRNA Synthetase Interacting Multifunctional Protein 2 (AIMP2)-DX2 for Lung Cancer Treatment” (J Med Chem, 2020).

Series [1] has as its system A549. The series can be described thus: Growth inhibition of human A549 cells by MTT assay. It is filed as functional. In general terms: Formazan colour is commonly taken as a measure of viable cells.
Series [2] concerns NCI-H460. Briefly: Antitumor activity against human NCI-H460 cells xenografted in BALB/c mouse assessed as decrease in tumor size at 40 mg/kg, ip dosed every other day for 13 days. It is filed as functional, organism-based. (In general: In xenograft studies the graft and the host belong to different species.)
Series [3] in a line: Drug level in tumor of BALB/c mouse xenografted with human NCI-H460 cells […] at 40 mg/kg, ip dosed every other day for 13 days. It is filed as ADME, organism-based, Neoplasm. Conditions: read-out: Drug uptake.
Series [4] has as its system NCI-H460. Briefly: Effect on AIMP2 DX2 isoform mRNA expression in human NCI-H460 cells at 1.2 to 10 uM by RT-PCR analysis. It is filed as ADME, cell-based. Conditions: nci-h460, 10 µM.
Another series has as its system NCI-H1299. The series can be described thus: Growth inhibition of human NCI-H1299 cells incubated for 72 hrs by MTT assay. It is filed as functional. Conditions: NCI-H1299, 72 h.
Series [5] concerns NCI-H460. The series can be described thus: Growth inhibition of human NCI-H460 cells incubated for 72 hrs by MTT assay. It is filed as functional. The conditions noted are these: NCI-H460, 72 h.
For series [6], the species on record is Mus musculus. Conditions: BALB/c, 40 mg/kg.
Description: Inhibition of tumor AIMP2-DX2 expression in BALB/c mouse xenografted with human NCI-H460 cells at 40 mg/kg, ip dosed every other day for 13 days by SDS-PAGE and Western blotting analysis
Series [7] is described as follows: Growth inhibition of human WI26 cells incubated for 72 hrs by MTT assay.
Series [8] relates to A549. The series can be described thus: Growth inhibition of human A549 cells incubated for 72 hrs by MTT assay. It is filed as functional. Conditions: A549, 72 h.
Series [9] can be described thus: Toxicity in BALB/c mouse xenografted with human NCI-H460 cells assessed effect on body weight at 40 mg/kg, ip dosed every other day for 13 days. It is filed as organism-based. Conditions: in vivo, 312 h.
Series [10] relates to NCI-H460. Briefly: Antitumor activity against human NCI-H460 cells xenografted in BALB/c mouse assessed as decrease in tumor volume at 40 mg/kg, ip dosed every other day for 13 days. It is filed as functional, organism-based.
For series [11], the system named is Mus musculus. The series can be described thus: Effect on tumor AIMP2 expression in BALB/c mouse xenografted with human NCI-H460 cells at 40 mg/kg, ip dosed every other day for 13 days by SDS-PAGE and Western blotting analysis. It is filed as ADME, organism-based. Conditions: in vivo, 312 h.
The nature of series [12]: Toxicity in BALB/c mouse xenografted with human NCI-H460 cells at 40 mg/kg, ip dosed every other day for 13 days. It is filed as organism-based. Conditions: in vivo, 312 h.
For another series, the system named is Calu-6. Briefly: Growth inhibition of human Calu6 cells incubated for 72 hrs by MTT assay. Conditions: Calu-6, 72 h. It is filed as functional.
The target of series [13] is T1, Aminoacyl tRNA synthase complex-interacting multifunctional protein 2 (Homo sapiens) (UniProt Q13155).
T1 sequence (whole entry): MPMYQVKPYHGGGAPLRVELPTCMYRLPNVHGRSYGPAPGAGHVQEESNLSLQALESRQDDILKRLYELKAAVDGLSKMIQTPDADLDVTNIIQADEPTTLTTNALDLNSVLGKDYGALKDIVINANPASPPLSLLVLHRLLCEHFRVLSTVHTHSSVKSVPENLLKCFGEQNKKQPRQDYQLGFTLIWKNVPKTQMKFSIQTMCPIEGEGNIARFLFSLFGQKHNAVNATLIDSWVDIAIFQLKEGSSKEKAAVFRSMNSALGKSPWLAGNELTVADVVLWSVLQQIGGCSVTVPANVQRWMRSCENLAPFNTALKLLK
The series can be described thus: Inhibition of DX2-p14/ARF interaction in human SCLC cells assessed as inhibition of cell growth by MTT assay. It is filed as cell-based.

Another series deals with NSCLC. Briefly: Growth inhibition of human NSCLC. It is filed as functional.

Active and inactive are the calls of the source. No cut-off for these calls is given here.

Take `CN1CCN(CCOc2cccc(Nc3nc(-c4ccc(Cl)cc4)cc(N4CCOCC4)n3)c2)CC1`: the GI50 (in general, the concentration at which growth is held to half of that of the control) with A549 [1] amounted to 6.5 µM.
Turning to `COC1CCCN(c2cc(-c3ccc(Cl)cc3)nc(Nc3cccc(OCCN4CCN(C)CC4)c3)n2)C1` (stereo not drawn), the result in the series with NCI-H460 [2] and in the series with NCI-H460 [10] was Active. In addition, the concentration at 312 h in series [3] was determined as 62.7 µM. Besides, the Activity result (in the series on NCI-H460 [4]; in [9]; with Mus musculus [11]; in [12]) was “Non-Toxic” throughout. Further, the GI50 in the series with NCI-H1299 was 4.18 µM; with NCI-H460 [5], 0.6 µM; in the series on A549 [8] it was 2.82 µM; with Calu-6, 4.4 µM. For the same molecule, in the series filed under Mus musculus [6], the inhibition entry was “Active”. In addition, in series [7], the “growth inhibition (GI)” value is “Non-Toxic”.
For the molecule `CN1CCN(CCOc2cccc(Nc3nccc(-c4ccc(Cl)cc4)n3)c2)CC1`, the outcome in the series with NCI-H460 [2] and in the series on NCI-H460 [10] was Active. Moreover, the concentration at 312 h in [3] was 0.088 µM. Also, the Activity entry (in the series on NCI-H460 [4]; in series [9]; with Mus musculus [11]) was “Non-Toxic” each time. Besides, the GI50 in the series with NCI-H1299 came to 5.78 µM; in the series on NCI-H460 [5], 0.89 µM; with A549 [8], 1.13 µM; in the series with Calu-6 it was 4.22 µM. The inhibition result in the series listed under Mus musculus [6] was “Active”. Besides, the “growth inhibition (GI)” value in series [7] is “Non-Toxic”.
On to `CC1(C)Oc2cc3oc(=O)ccc3cc2C[C@@H]1OC(=O)/C=C/c1ccco1`, for which the values for the GI50 (in series [13]; in the series on NSCLC) were 5 to 10 µM and over 50 µM, respectively.
